Patent publication US20140051575A1 (priority 2011, published 2014)

Tests used:
[1] = Measurement of logP values by HPLC on reversed phase columns (EEC directive 79/831 Annex V.A8); format: physicochemical; conditions: pH 2.7, 0.1% formic acid in water / acetonitrile gradient, calibration with alkan-2-ones
Description: Measurement of logP values was performed according EEC directive 79/831 Annex V.A8 by HPLC (High Performance Liquid Chromatography) on reversed phase columns with the following methods:
Measurement of LC-MS was done at pH 2.7 with 0.1% formic acid in water and with acetonitrile (contains 0.1% formic acid) as eluent with a linear gradient from 10% acetonitrile to 95% acetonitrile.
Calibration was done with not branched alkan2-ones (with 3 to 16 carbon atoms) with known logP-values (measurement of logP values using retention times with linear interpolation between successive alkanones). lambda-maX-values were determined using UV-spectra from 200 nm to 400 nm and the peak values of the chromatographic signals.

Phytophthora infestans = format: in vivo; conditions: tomato plants, preventive spray, 500 ppm of active ingredient, evaluated 7 days after inoculation; 0% = untreated control, 100% = no disease

Structure (SMILES)	Log P [1]	Eff. % (Phytophthora infestans)
Cc1nnnn1C(=NOCc1cccc(NC(=O)C(C)OCC2CCCCC2)n1)c1ccccc1 (stereo not shown) [Example 28]	5.13	100%
Cc1nnnn1C(=NOCc1csc(NC(=O)CSCC2CC2)n1)c1ccccc1 [Example 87]	3.31	100%
CC(C)CCOC(C)C(=O)Nc1cccc(CON=C(c2ccccc2)c2nnnn2C)n1 (stereo not shown) [Example 44]	4.41	100%
Cc1nnnn1C(=NOCc1csc(NC(=O)CSC2CCCCC2)n1)c1ccccc1 [Example 89]	3.96	100%
CC(OCC1CCCCO1)C(=O)Nc1nc(CON=C(c2ccccc2)c2nnnn2C)cs1 (stereo not shown) [Example 59]	3.62	100%
CC(OCC1CCCCC1)C(=O)Nc1nc(CON=C(c2ccccc2)c2nnnn2C)cs1 (stereo not shown) [Example 18]	4.64	100%
Cn1nnnc1C(=NOCc1csc(NC(=O)CSCc2cccs2)n1)c1ccccc1 [Example 69]	3.46	95%
CC(OCC1CC1)C(=O)Nc1ccc(Br)c(CON=C(c2ccccc2)c2nnnn2C)n1 (stereo not shown) [Example 3]	4.23	100%
Cc1nnnn1C(=NOCc1csc(NC(=O)CCSCc2ccc(F)cc2)n1)c1ccccc1 [Example 115]	3.78	80%
Cn1nnnc1C(=NOCc1csc(NC(=O)CCSCc2ccc(F)cc2)n1)c1ccccc1 [Example 107]	3.73	95%
Cn1nnnc1C(=NOCc1csc(NC(=O)COCCC2CCCC2)n1)c1ccccc1 [Example 21]	4.29	95%
Cc1nnnn1C(=NOCc1csc(NC(=O)CSCc2ccccc2)n1)c1ccccc1 [Example 86]	3.57	93%
Cn1nnnc1C(=NOCc1cccc(NC(=O)OCC(C)(C)OCc2ccccc2)n1)c1ccccc1 [Example 68]	4.34	100%
CC(OCC1CCCCO1)C(=O)Nc1cccc(CON=C(c2ccccc2)c2nnnn2C)n1 (stereo not shown) [Example 55]	3.67	100%
Cn1nnnc1C(=NOCc1csc(NC(=O)CCSCc2ccccc2)n1)c1ccccc1 [Example 108]	3.69	90%
Cc1nnnn1C(=NOCc1csc(NC(=O)COCCC2CCCCC2)n1)c1ccccc1 [Example 40]	4.71	95%
C=CCSC(C)C(=O)Nc1cccc(CON=C(c2ccccc2)c2nnnn2C)n1 (stereo not shown) [Example 66]	–	95%
Cn1nnnc1C(=NOCc1cccc(NC(=O)CCOCc2ccccc2)n1)c1ccccc1 [Example 99]	3.48	90%
Cn1nnnc1C(=NOCc1csc(NC(=O)C2CC2c2ncc(C(F)(F)F)cc2Cl)n1)c1ccccc1 (stereo not shown) [Example 93]	4.37	98%
Cc1nnnn1C(=NOCc1cccc(NC(=O)CSC2CCCCC2)n1)c1ccccc1 [Example 79]	4.26	100%
Cc1nnnn1C(=NOCc1csc(NC(=O)COCC2CCCC2)n1)c1ccccc1 [Example 36]	3.94	97%
Cc1nnnn1C(=NOCc1csc(NC(=O)CSCc2cccs2)n1)c1ccccc1 [Example 84]	3.51	98%
Cc1nnnn1C(=NOCc1cccc(NC(=O)COCCC2CCCCC2)n1)c1ccccc1 [Example 30]	5.08	95%
Cn1nnnc1C(=NOCc1cccc(NC(=O)COCC2CCCCC2)n1)c1ccccc1 [Example 6]	4.63	95%
Cc1nnnn1C(=NOCc1cccc(NC(=O)COCCC2CCCC2)n1)c1ccccc1 [Example 31]	4.73	97%
Cn1nnnc1C(=NOCc1cccc(NC(=O)COCC2CCCCO2)n1)c1ccccc1 (stereo not shown) [Example 53]	3.33	–
CC(OCC1CCCCC1)C(=O)Nc1cccc(CON=C(c2ccccc2)c2nnnn2C)n1 (stereo not shown) [Example 7]	5.03	100%
CC(COCc1ccccc1)C(=O)Nc1nc(CON=C(c2ccccc2)c2nnnn2C)cs1 (stereo not shown) [Example 104]	3.65	100%

Structure (SMILES)	Log P [1]	Eff. % (Phytophthora infestans)
Cc1nnnn1C(=NOCc1csc(NC(=O)C(C)(C)CSC2CCCCC2)n1)c1ccccc1 [Example 113]	4.85	98%
CC(COCc1ccccc1)C(=O)Nc1cccc(CON=C(c2ccccc2)c2nnnn2C)n1 (stereo not shown) [Example 97]	3.85	100%
Cc1nnnn1C(=NOCc1cccc(NC(=O)C(C)OCc2ccccc2)n1)c1ccccc1 (stereo not shown) [Example 51]	4.11	95%
Cn1nnnc1C(=NOCc1cccc(NC(=O)COCCC2CCCCC2)n1)c1ccccc1 [Example 10]	4.98	95%
Cn1nnnc1C(=NOCc1csc(NC(=O)C(C)(C)CSC2CCCCC2)n1)c1ccccc1 [Example 102]	4.77	100%
Cn1nnnc1C(=NOCc1cccc(NC(=O)C(C)(C)CSC2CCCCC2)n1)c1ccccc1 [Example 94]	4.98	100%
Cc1nnnn1C(=NOCc1csc(NC(=O)CSC2CCCC2)n1)c1ccccc1 [Example 90]	3.65	95%
Cc1nnnn1C(=NOCc1cccc(NC(=O)COCC2CC2)n1)c1ccccc1 [Example 23]	3.33	95%
CC(C)CCOCC(=O)Nc1cccc(CON=C(c2ccccc2)c2nnnn2C)n1 [Example 43]	4.09	–
Cc1nnnn1C(=NOCc1csc(NC(=O)C(C)OCC2CCCCO2)n1)c1ccccc1 (stereo not shown) [Example 62]	3.69	98%
CC(OCC(=O)Nc1cccc(CON=C(c2ccccc2)c2nnnn2C)n1)c1ccccc1 (stereo not shown) [Example 95]	3.94	100%
CC(OCC(=O)Nc1nc(CON=C(c2ccccc2)c2nnnn2C)cs1)c1ccccc1 (stereo not shown) [Example 105]	3.7	95%
Cc1nnnn1C(=NOCc1cccc(NC(=O)CCSCc2ccc(F)cc2)n1)c1ccccc1 [Example 111]	3.92	90%
Cc1nnnn1C(=NOCc1cccc(NC(=O)C(C)(C)CSC2CCCCC2)n1)c1ccccc1 [Example 109]	5.08	95%
Cc1ccccc1CSCC(=O)Nc1cccc(CON=C(c2ccccc2)n2nnnc2C)n1 [Example 78]	4.06	100%
Cc1nnnn1C(=NOCc1csc(NC(=O)COCCC2CCCC2)n1)c1ccccc1 [Example 41]	4.34	98%
Cc1nnnn1C(=NOCc1csc(NC(=O)COCC2CCCCC2)n1)c1ccccc1 [Example 37]	4.36	100%
Cc1nnnn1C(=NOCc1csc(NC(=O)C(C)OCC2CCCCC2)n1)c1ccccc1 (stereo not shown) [Example 38]	4.74	100%
Cc1nnnn1C(=NOCc1csc(NC(=O)COCCC(C)C)n1)c1ccccc1 [Example 46]	3.87	100%
C=CCSCC(=O)Nc1nc(CON=C(c2ccccc2)c2nnnn2C)cs1 [Example 72]	3.11	100%
Cc1nnnn1C(=NOCc1csc(NC(=O)CCOCc2ccccc2)n1)c1ccccc1 [Example 114]	3.37	93%
Cc1nnnn1C(=NOCc1csc(NC(=O)CSCCC(C)C)n1)c1ccccc1 [Example 81]	3.99	95%
Cn1nnnc1C(=NOCc1cccc(NC(=O)C2CC2c2ncc(C(F)(F)F)cc2Cl)n1)c1ccccc1 (stereo not shown) [Example 92]	4.54	98%
Cn1nnnc1C(=NOCc1cccc(NC(=O)CSCc2ccccc2)n1)c1ccccc1 [Example 64]	3.78	–
CC(OCc1ccccc1)C(=O)Nc1cccc(CON=C(c2ccccc2)c2nnnn2C)n1 (stereo not shown) [Example 47]	3.92	–
Cn1nnnc1C(=NOCc1cccc(NC(=O)COCC2CC2)n1)c1ccccc1 [Example 1]	3.29	–
Cc1nnnn1C(=NOCc1cccc(NC(=O)COCC2CCCO2)n1)c1ccccc1 (stereo not shown) [Example 61]	2.98	–
